As usually defined, the IC50 is the point on the concentration scale where inhibition reaches its midpoint.

The results in this text go back to PubChem BioAssay AID504626 (Southern Research Specialized Biocontainment Screening …, 2011).

In the assay the test system is human PBMC, CCR5-tropic HIV-1 replication, RT activity. Kind of assay: inhibitors of CCR5-tropic HIV-1 replication in PBMCs, dose response, cell-based, human PBMC, R5-tropic strain, set 3 (AID 504626).

The structures appear in SMILES notation.

Regarding `Cc1c2c(=O)n(-c3nc4ccccc4s3)nc-2cc(O)n1Cc1ccccc1`, the IC50 is 1570 nM.
